Reference: patent publication US12091425B2 (AMGEN INC., priority 2016, dated 2024)
pIC50: −log10 of the molar value.

Biological target: T1, Mcl-1/Bim interaction, recombinant human Mcl-1 (171-327) (Homo sapiens, UniProt Q07820)
T1 construct: made in house
Experiment: Cell free Mcl-1: Bim Affinity Assay (Mcl-1 HTRF)
Type: binding
Conditions: cell free Mcl-1:Bim TR-FRET, recombinant human Mcl-1 (171-327)
Experimental: Cell free Mcl-1: Bim Affinity Assay (Mcl-1 HTRF)
The inhibition of the Mcl-1/Bim interaction was measured using a time-resolved fluorescence resonance energy transfer (TR-FRET) assay. […] A biotinylated peptide derived from human Bim (residues 51-76) was purchased from CPC Scientific (San Jose, CA). The TR-FRET assay was conducted in a 384-well white OptiPlatem (PerkinElmer, Waltham, MA) in a total volume of 40 μL. […] The reaction plates were further incubated overnight and then were read on an Envision® multimode reader (PerkinElmer). […] The IC50 values of test compounds were determined from duplicate data by analyzing competition curves using a four-parameter sigmoidal model in GraphPad Prism (GraphPad Software, San Diego, CA) or in Genedata Screener® (Genedata, Basel, Switzerland).

T1 sequence (Q07820 171-327): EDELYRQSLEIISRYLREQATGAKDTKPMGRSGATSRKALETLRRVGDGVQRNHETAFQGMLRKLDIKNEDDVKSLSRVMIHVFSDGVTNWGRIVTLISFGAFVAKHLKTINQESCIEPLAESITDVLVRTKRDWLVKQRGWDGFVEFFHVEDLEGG

Q: With `O=C1NS(=O)(=O)CCC[C@@H](O)CC[C@@H]2CC[C@H]2CN2C[C@@]3(CCCc4cc(Cl)ccc43)COc3ccc1cc32` (single isomer, unassigned) [Example 503, (1S,3′R,6′S,9′S)-6-chloro-9′-hydroxy-3,4-dihydro-2H,15′H-spiro[naphthalene-1,22′-[20]oxa[13]thia[1,14]diazatetracyclo[14.7.2.0^3,6.0^19,24]pentacosa [16,18,24]trien]-15′-one 13′,13′-dioxide or (1S,3′R,6′S,9′R)-6-chloro-9′-hydroxy-3,4-dihydro-2H,15′H-spiro[naphthalene-1,22′-[20]oxa[13]thia[1,14]diazatetracyclo[14.7.2.0^3,6.0^19,24]pentacosa [16,18,24]trien]-15′-one 13′,13′-dioxide] as the compound, how does the pIC50 read?
A: 8.40

Q: With `C[C@@H]1[C@@H](O)C/C=C/C[C@@H]2CC[C@H]2CN2C[C@@]3(CCCc4cc(Cl)ccc43)COc3ccc(cc32)C(=O)NS1(=O)=O` (single isomer, unassigned) [Example 504] as the compound, how does the pIC50 read?
A: 8.59

Q: How did the pIC50 turn out when `C[C@@H]1[C@H](O)C/C=C/C[C@@H]2CC[C@H]2CN2C[C@@]3(CCCc4cc(Cl)ccc43)COc3ccc(cc32)C(=O)NS1(=O)=O` (single isomer, unassigned) [Example 506] was run?
A: 7.81

Q: `CC1C(O)CC=CCC2CCC2CN2CC3(CCCc4cc(Cl)ccc43)COc3ccc(cc32)C(=O)NS1(=O)=O` (single isomer, unassigned) [Example 507] was tested. Which pIC50 did it give?
A: 7.74

Q: With `C[C@@H](O)C[C@H]1CC/C=C/[C@H](O)[C@@H]2CC[C@H]2CN2C[C@@]3(CCCc4cc(Cl)ccc43)COc3ccc(cc32)C(=O)NS1(=O)=O` (single isomer, unassigned) [Example 539] as the compound, how does the pIC50 read?
A: 8.56

Q: How did the pIC50 turn out when `C[C@H](O)C[C@H]1CC/C=C/[C@H](O)[C@@H]2CC[C@H]2CN2C[C@@]3(CCCc4cc(Cl)ccc43)COc3ccc(cc32)C(=O)NS1(=O)=O` (single isomer, unassigned) [Example 551] was run?
A: 8.46

Q: How did the pIC50 turn out when `O=C1NS(=O)(=O)C[C@@H](O)/C=C/C[C@H](O)[C@@H]2CC[C@H]2CN2C[C@@]3(CCCc4cc(Cl)ccc43)COc3ccc1cc32` (single isomer, unassigned) [Example 597] was run?
A: 8.84

Q: How did the pIC50 turn out when `O=C1NS(=O)(=O)C[C@H](O)/C=C/C[C@H](O)[C@@H]2CC[C@H]2CN2C[C@@]3(CCCc4cc(Cl)ccc43)COc3ccc1cc32` (single isomer, unassigned) [Example 598] was run?
A: 8.83

Q: `CC#CC1=CC(O)CCC(C)S(=O)(=O)NC(=O)c2ccc3c(c2)N(CC2CCC12)CC1(CCCc2cc(Cl)ccc21)CO3` (single isomer, unassigned) [Example 605] was tested. Which pIC50 did it give?
A: 9.03

Q: `CC#CC1=CC(O)CCC(C)S(=O)(=O)NC(=O)c2ccc3c(c2)N(CC2CCC12)CC1(CCCc2cc(Cl)ccc21)CO3` (single isomer, unassigned) [Example 606] was tested. Which pIC50 did it give?
A: 7.87

Q: `C[C@@H]1CCC2=NO[C@H](C2)[C@@H]2CC[C@H]2CN2C[C@@]3(CCCc4cc(Cl)ccc43)COc3ccc(cc32)C(=O)NS1(=O)=O` (single isomer, unassigned) [Example 609] was tested. Which pIC50 did it give?
A: 8.42

Q: With `O=C1NS(=O)(=O)[C@H](CCOc2ccc(Br)cc2)CC/C=C/[C@H](O)[C@@H]2CC[C@H]2CN2C[C@@]3(CCCc4cc(Cl)ccc43)COc3ccc1cc32` (single isomer, unassigned) [Example 625] as the compound, how does the pIC50 read?
A: 7.42

Q: How did the pIC50 turn out when `O=C(C[C@@H]1CC/C=C/[C@H](O)[C@@H]2CC[C@H]2CN2C[C@@]3(CCCc4cc(Cl)ccc43)COc3ccc(cc32)C(=O)NS1(=O)=O)Nc1cccc(Cl)c1` (single isomer, unassigned) [Example 627] was run?
A: 8.00

Q: `COc1cccc(NC(=O)C[C@@H]2CC/C=C/[C@H](O)[C@@H]3CC[C@H]3CN3C[C@@]4(CCCc5cc(Cl)ccc54)COc4ccc(cc43)C(=O)NS2(=O)=O)c1` (single isomer, unassigned) [Example 628] was tested. Which pIC50 did it give?
A: 8.41

Q: With `COc1ccc(C)c(NC(=O)C[C@@H]2CC/C=C/[C@H](O)[C@@H]3CC[C@H]3CN3C[C@@]4(CCCc5cc(Cl)ccc54)COc4ccc(cc43)C(=O)NS2(=O)=O)c1` (single isomer, unassigned) [Example 629] as the compound, how does the pIC50 read?
A: 8.64

Q: How did the pIC50 turn out when `O=C(C[C@@H]1CC/C=C/[C@H](O)[C@@H]2CC[C@H]2CN2C[C@@]3(CCCc4cc(Cl)ccc43)COc3ccc(cc32)C(=O)NS1(=O)=O)Nc1ccccc1` (single isomer, unassigned) [Example 630] was run?
A: 8.79

Q: With `O=C1C[C@H](O)[C@@H]2CC[C@H]2CN2C[C@@]3(CCCc4cc(Cl)ccc43)COc3ccc(cc32)C(=O)NS(=O)(=O)CCN1` (single isomer, unassigned) [Example 680] as the compound, how does the pIC50 read?
A: 7.57

Q: How did the pIC50 turn out when `O=C1C[C@H](O)[C@@H]2CC[C@H]2CN2C[C@@]3(CCCc4cc(Cl)ccc43)COc3ccc(cc32)C(=O)NS(=O)(=O)CCN1` (single isomer, unassigned) [Example 681] was run?
A: 7.54

Q: How did the pIC50 turn out when `COC1C=CCCC(C(C)(C)O)S(=O)(=O)NC(=O)c2ccc3c(c2)N(CC2CCC21)CC1(CCCc2cc(Cl)ccc21)CO3` (single isomer, unassigned) [Example 682] was run?
A: 8.75

Q: `O=C1NS(=O)(=O)C[C@@H](C2CC2)C/C=C/[C@H](O)[C@@H]2CC[C@H]2CN2C[C@@]3(CCCc4cc(Cl)ccc43)COc3ccc1cc32` (single isomer, unassigned) [Example 684] was tested. Which pIC50 did it give?
A: 7.96

Q: With `CC[C@@H]1CCCC[C@H](O)[C@@H]2CC[C@H]2CN2C[C@@]3(CCc4cc(Cl)ccc43)COc3ccc(cc32)C(=O)NS1(=O)=O` (single isomer, unassigned) [Example 695, (1S,3′R,6′R,7′S,12′R)-5-chloro-12′-ethyl-7′-hydroxy-2,3-dihydro-15′H-spiro[indene-1,22′-[20]oxa[13]thia[1,14]diazatetracyclo[14.7.2.0^3,6.0^19,24]pentacosa [16,18,24]trien]-15′-one 13′,13′-dioxide or (1S,3′R,6′R,7′S,12′S)-5-chloro-12′-ethyl-7′-hydroxy-2,3-dihydro-15′H-spiro[indene-1,22′-[20]oxa[13]thia[1,14]diazatetracyclo[14.7.2.0^3,6.0^19,24]pentacosa [16,18,24]trien]-15′-one 13′,13′-dioxide] as the compound, how does the pIC50 read?
A: 8.69

Q: How did the pIC50 turn out when `CC(C)(O)[C@@H]1CC/C=C/[C@H](O)[C@@H]2CC[C@H]2CN2C[C@@]3(CCCc4cc(Cl)ccc43)COc3ccc(cc32)C(=O)NS1(=O)=O` (single isomer, unassigned) [Example 696] was run?
A: 9.52

Q: With `CC(C)(O)[C@@H]1CC/C=C/[C@H](O)[C@@H]2CC[C@H]2CN2C[C@@]3(CCCc4cc(Cl)ccc43)COc3ccc(cc32)C(=O)NS1(=O)=O` (single isomer, unassigned) [Example 697] as the compound, how does the pIC50 read?
A: 9.13

Q: `CC[C@H]1CC/C=C/[C@H](O)[C@@H]2CC[C@H]2CN2C[C@@]3(CCc4cc(Cl)ccc43)COc3ccc(cc32)C(=O)NS1(=O)=O` (single isomer, unassigned) [Example 699] was tested. Which pIC50 did it give?
A: 9.19

Q: How did the pIC50 turn out when `CC[C@H]1CC/C=C/[C@H](O)[C@@H]2CC[C@H]2CN2C[C@@]3(CCc4cc(Cl)ccc43)COc3ccc(cc32)C(=O)NS1(=O)=O` (single isomer, unassigned) [Example 700] was run?
A: 7.56

Q: `O=C1NS(=O)(=O)C[C@H](c2ccccc2)C/C=C/[C@H](O)[C@@H]2CC[C@H]2CN2C[C@@]3(CCCc4cc(Cl)ccc43)COc3ccc1cc32` (single isomer, unassigned) [Example 704] was tested. Which pIC50 did it give?
A: 7.39

Q: With `O=C1NS(=O)(=O)C[C@H](CO)/C=C/C[C@H](O)[C@@H]2CC[C@H]2CN2C[C@@]3(CCCc4cc(Cl)ccc43)COc3ccc1cc32` (single isomer, unassigned) [Example 706] as the compound, how does the pIC50 read?
A: 8.35

Q: With `O=C1NS(=O)(=O)C[C@@H](CO)/C=C/C[C@H](O)[C@@H]2CC[C@H]2CN2C[C@@]3(CCCc4cc(Cl)ccc43)COc3ccc1cc32` (single isomer, unassigned) [Example 707] as the compound, how does the pIC50 read?
A: 8.65

Q: How did the pIC50 turn out when `O=C1NS(=O)(=O)C[C@H](CO)CCC[C@H](O)[C@@H]2CC[C@H]2CN2C[C@@]3(CCCc4cc(Cl)ccc43)COc3ccc1cc32` (single isomer, unassigned) [Example 708] was run?
A: 8.95

Q: How did the pIC50 turn out when `O=C1NS(=O)(=O)[C@H](CO)CCCC[C@H](O)[C@@H]2CC[C@H]2CN2C[C@@]3(CCCc4cc(Cl)ccc43)COc3ccc1cc32` (single isomer, unassigned) [Example 712] was run?
A: 9.00

Q: With `O=C1NS(=O)(=O)[C@@H](CO)CCCC[C@H](O)[C@@H]2CC[C@H]2CN2C[C@@]3(CCCc4cc(Cl)ccc43)COc3ccc1cc32` (single isomer, unassigned) [Example 713] as the compound, how does the pIC50 read?
A: 8.77

Q: How did the pIC50 turn out when `COC1C=CCC(OC)C(C)S(=O)(=O)NC(=O)c2ccc3c(c2)N(CC2CCC21)CC1(CCCc2cc(Cl)ccc21)CO3` (single isomer, unassigned) [Example 717] was run?
A: 7.54

Q: With `CC(C)[C@@H]1CCCC[C@H](O)[C@@H]2CC[C@H]2CN2C[C@@]3(CCCc4cc(Cl)ccc43)COc3ccc(cc32)C(=O)NS1(=O)=O` (single isomer, unassigned) [Example 752] as the compound, how does the pIC50 read?
A: 8.36

Q: `CC(C)[C@@H]1CCCC[C@@H](O)[C@@H]2CC[C@H]2CN2C[C@@]3(CCCc4cc(Cl)ccc43)COc3ccc(cc32)C(=O)NS1(=O)=O` (single isomer, unassigned) [Example 754] was tested. Which pIC50 did it give?
A: 8.05

Q: How did the pIC50 turn out when `C[C@H]1C/C=C/[C@H](O)[C@@H]2CC[C@H]2CN2C[C@@]3(CCCc4cc(Cl)ccc43)COc3ccc(cc32)C(=O)NS1(=O)=O` (single isomer, unassigned) [Example 759] was run?
A: 8.40

Q: With `C[C@H]1CCCC(=O)[C@@H]2CC[C@H]2CN2C[C@@]3(CCCc4cc(Cl)ccc43)COc3ccc(cc32)C(=O)NS1(=O)=O` (single isomer, unassigned) [Example 760] as the compound, how does the pIC50 read?
A: 7.80

Q: How did the pIC50 turn out when `CC[C@@H]1/C=C/C[C@H](O)[C@@H]2CC[C@H]2CN2C[C@@]3(CCCc4cc(Cl)ccc43)COc3ccc(cc32)C(=O)NS1(=O)=O` (single isomer, unassigned) [Example 766] was run?
A: 8.19
